Values after ≈ are worked out from the molar mass of the structure shown.
Key:
Type in all cases: cell-based, Staphylococcus aureus
Staph aureus 2812 = experiment: MIC, microtiter broth dilution (CLSI M7-A7), Assay 1, Table 12 column E, no serum; settings: for MIC, column E: Staph aureus 2812, Assay 1, no serum; for MIC: Staphylococcus aureus, 2812, Staph aureus 2812, Assay 1, no serum
In short: (§1)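 MIC read as lowest drug level giving no macroscopically visible growth, μg/ml. Method: CLSI M7-A7 microtiter broth dilution, M100-S16 interpretation. Serum arm: inoculum in Mueller-Hinton Broth + 50% pooled inactivated human serum. Multiple runs → geometric mean.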

Staph aureus 1146 [1] = experiment: MIC in Mueller-Hinton Broth with 50% pooled inactivated human serum, Assay 1, Table 12; settings: for MIC, column C: Staph aureus 1146, Assay 1, 50% human serum
In short: as §1

Staph aureus 2810 = experiment: MIC, microtiter broth dilution (CLSI M7-A7), Assay 2, Table 12 column H, no serum; settings: for MIC, column H: Staph aureus 2810, Assay 2, no serum
Description: (§2) The assays described herein include a panel of bacterial isolates of Staphylococcus aureus. Assay 1 comprises the strains noted in Columns A through E, and Assay 2 comprises the strains noted in Columns F through H. The assays are performed in microtiter trays according to Methods for Dilution Antimicrobial Susceptibility Tests for Bacteria that Grow Aerobically; Approved Standard-7th edition (M7-A7) and interpreted according to the Performance Standards for Antimicrobial Susceptibility Testing; 16th Informational Supplement (M100-S16) published by Clinical Laboratory Standards Institute (CLSI). The antibacterial activity is presented in the form of a minimum inhibitory concentration (MIC) value in μg/ml format. The MIC value represents the lowest concentration of drug measured which prevented macroscopically visible growth under the conditions and specific doses tested. The compounds were initially dissolved in DMSO as 30 mM stocks and diluted accordingly to adjust to a concentration of 10 mg/ml or the compounds were dissolved in DMSO at a concentration of 10 mg/ml. For assessment of activity in the presence of human serum, S. aureus 1146 and S. aureus 1031 were inoculated into Mueller-Hinton Broth with 50% pooled inactivated human serum. In some cases, compounds were tested more than once in a particular assay. Where noted, the MIC value shown in Table 12 represents the geometric mean of the data from multiple runs.
(§3) It should be understood that the data in columns A-H represents MIC data in μg/ml and the notation “<=” means ‘less than or equal to’.

Staph aureus 1031 [2] = experiment: MIC, microtiter broth dilution (CLSI M7-A7), Assay 2, Table 12 column F, no serum; settings: for MIC, column F: Staph aureus 1031, Assay 2, no serum
Description: as §2, §3

Staph aureus 1095 MRSA = experiment: MIC, microtiter broth dilution (CLSI M7-A7), Assay 1, Table 12 column A, no serum; settings: Assay 1, no serum; for MIC: Staphylococcus aureus, MRSA
In short: as §1

Staph aureus 1146 [3] = experiment: MIC, microtiter broth dilution (CLSI M7-A7), Assay 1, Table 12 column B, no serum; settings: for MIC, column B: Staph aureus 1146, Assay 1, no serum
In short: as §1

Staph aureus 1031 [4] = experiment: MIC in Mueller-Hinton Broth with 50% pooled inactivated human serum, Assay 2, Table 12 column G; settings: for MIC, column G: Staph aureus 1031, Assay 2, 50% human serum; for MIC: Staphylococcus aureus, 1031, Staph aureus 1031, Assay 2, 50% human serum
Description: as §2, §3

Staph aureus 2811 = experiment: MIC, microtiter broth dilution (CLSI M7-A7), Assay 1, Table 12 column D, no serum; settings: for MIC, column D: Staph aureus 2811, Assay 1, no serum
In short: as §1

Compound	MIC, column E (Staph aureus 2812) [µg/mL]	MIC, column C (Staph aureus 1146 [1]) [µg/mL]	MIC, column H (Staph aureus 2810)	MIC, column F (Staph aureus 1031 [2]) [µg/mL]	MIC, column A (Staph aureus 1095 MRSA) [µg/mL]	MIC, column B (Staph aureus 1146 [3])	MIC, column G (Staph aureus 1031 [4]) [µg/mL]	MIC, column D (Staph aureus 2811)	MIC (Staph aureus 2812) [µg/mL]	MIC (Staph aureus 1146 [1]; Staphylococcus aureus, 1146, Staph aureus 1146, Assay 1, 50% human serum, read-out: MIC, column C) [µg/mL]	MIC (Staph aureus 2810; Staphylococcus aureus, 2810, Staph aureus 2810, Assay 2, no serum) [µg/mL]	MIC (Staph aureus 1031 [2]; Staphylococcus aureus, 1031, Staph aureus 1031, Assay 2, no serum) [µg/mL]	MIC (Staph aureus 1095 MRSA) [µg/mL]	MIC (Staph aureus 1146 [3]; Staphylococcus aureus, 1146, Staph aureus 1146, Assay 1, no serum) [µg/mL]	MIC (Staph aureus 1031 [4]) [µg/mL]	MIC (Staph aureus 2811; Staphylococcus aureus, 2811, Staph aureus 2811, Assay 1, no serum) [µg/mL]
4-{[2-(3-chloro-6-methoxyquinolin-4-yl)ethyl]amino}-1-[(2-phenylcyclopropyl)ethyl]zepane-4-carboxylic acid [Example 151]	4	32	2 µg/mL	2	8	4 µg/mL	64	2 µg/mL								
COC(=O)[C@H]1CN(C[C@@H]2C[C@H]2c2ccccc2)CC[C@H]1CCC(O)c1ccnc2ccc(OC)cc12 (mixture of isomers) [Example 5, methyl (3R,4R)-4-[3-hydroxy-3-(6-methoxyquinolin-4-yl)propyl]-1-{[(trans)-2-phenylcyclopropyl]methyl}piperidine-3-carboxylate]									4	32	8	4	2	4	64	8
COc1ccc2nccc(C(O)CC[C@@H]3CCN(C4CC(c5ccccc5)C4)C[C@@H]3C(=O)O)c2c1 (single isomer, unassigned) [Example 2]		0.4629 (≈ 0.975 µM)	<=.0625 μg/ml	0.125 (≈ 0.263 µM)		<=.0625 μg/ml	0.5 (≈ 1.05 µM)	<=.0884 μg/ml	0.158 (≈ 0.332 µM)				0.25 (≈ 0.527 µM)			
COc1ccc2nccc(C(O)CC[C@@H]3CCN(C4CC(c5ccccc5)C4)C[C@@H]3C(=O)O)c2c1 (single isomer, unassigned) [Example 3]	0.25 (≈ 0.527 µM)	1.7818 (≈ 3.75 µM)	0.5 µg/mL (≈ 1.05 µM)	0.5 (≈ 1.05 µM)	0.25 (≈ 0.527 µM)	<=.1768 μg/ml	4 (≈ 8.43 µM)	<=.25 μg/ml								
COc1ccc2nccc(C(O)CC[C@@H]3CCN(C4CC(c5ccccc5)C4)C[C@@H]3C(=O)O)c2c1 (single isomer, unassigned) [Example 4]	1 (≈ 2.11 µM)	4 (≈ 8.43 µM)	0.5 µg/mL (≈ 1.05 µM)	0.5 (≈ 1.05 µM)	2 (≈ 4.21 µM)	1 µg/mL (≈ 2.11 µM)		1 µg/mL (≈ 2.11 µM)							4 (≈ 8.43 µM)	
COc1ccc2nccc(C(O)CC[C@@H]3CCN(C[C@@H]4C[C@H]4c4ccccc4)C[C@@H]3C(=O)O)c2c1 (stereo partly drawn) [Example 85, (3R,4R)-4-[3-hydroxy-3-(6-methoxyquinolin-4-yl)propyl]-1-{[(tans)-2-phenylcyclopropyl]methyl}piperidine-3-carboxylic acid]	2 (≈ 4.21 µM)	5.6568 (≈ 11.9 µM)	2 µg/mL (≈ 4.21 µM)	2 (≈ 4.21 µM)	4 (≈ 8.43 µM)	1.4142 µg/mL (≈ 2.98 µM)	4 (≈ 8.43 µM)	1.4142 µg/mL (≈ 2.98 µM)								

Source: patent US20080280879A1, “SUBSTITUTED HETEROCYCLIC DERIVATIVES AND THEIR PHARMACEUTICAL USE AND COMPOSITIONS” (priority 2007, published 2008)
